We go through 1 compound from patent US20230250094A1, “SMALL MOLECULE INHIBITORS OF TDP-43 ACTIVITY AND USES THEREOF” (Arizona Board of Regents on Behalf of the University of …, priority 2020, published 2023).

One assay addresses T1, TDP43102-269 (Homo sapiens, UniProt Q13148).
T1 construct: made in house
Briefly: STD-NMR negative control on TDP43 102-269 lacking the NTD. The format is binding. The settings on record: same conditions, negative control construct. On the procedure:
(§1) FIG. 2. STD-NMR screening for compounds. A. Two different constructs were used for STD-NMR screening. 1D ^1H STD NMR showing on-resonance difference spectrum of 500 μM of compounds nTRD09-16 (B) or nTRD19-28 (C) with 5 μM TDP431-260. D. Positive hits from the first round of STD-NMR screening were tested against TDP43102-269 in the same conditions. Asterisks indicate positive signal.
(§2) Saturation transfer difference nuclear magnetic resonance (STD-NMR) spectroscopy was then used to screen the binding of the compounds to TDP-431-260. As a negative control, binding to TDP43102-269 lacking the NTD was also determined (FIG. 2A). […]
(§3) Saturation Transfer Difference Nuclear Magnetic Resonance (STD-NMR). Spectroscopy for small molecule binding. 1D ^1H STD-NMR was performed exactly as previously described (see, Frangois-Moutal, L.; et al., ACS Chem. Biol. 2019, 14, 2006-2013; Frangois-Moutal, L.; et al., ACS Chem. Biol. 2018, 13, 3000-3010).

Assay [1] has as its target T2, TDP-431-260 (Homo sapiens, UniProt Q13148).
T2 construct: Human TDP-431-260 and TDP43102-269 were expressed as described in our previous studies; made in house
The experiment in a line: Microscale thermophoresis (MST). The format is binding. Conditions: NT-647 labeled TDP431-260, 0.03 μM-1 mM compound, mean±SD n=3; read-out: apparent Kd. On the procedure:
FIG. 3. Modeling of binding and affinity of nTRD22 for TDP-43. A. Structure of N-(2-(3-hydroxypiperidin-1-yl)ethyl)-5-((3-(trifluoromethyl)phenoxy)methyl)isoxazole-3-carboxamide (nTRD22). B. 2D representation of nTRD22 binding pocket in TDP-43 NTD. C. MST values from thermographs of NT-647 labeled TDP431-260 in presence of increasing concentrations (0.03 μM-1 mM) of nTRD22 were used to determine dissociation constant for binding of nTRD22 to TDP431-260. […] Data is presented as mean±SD (n=3).
In-silico docking of nTRD22 predicted interactions with Q3, Y43, S48, G59, and A66 (FIG. 3A). ^1H-NMR of nTRD22 was used to evaluate the on-resonance energy transfer from STD-NMR of nTRD22 with TDP-431-260. The peaks seen in the STD-NMR spectrum were in the region of the benzyl group (ii, 6.9-7.2 ppm) (FIG. 2C) confirming the […] interaction of the benzene group of nTRD22 with Tyr43, predicted by virtual screening.
Microscale Thermophoresis (MST). Microscale thermophoresis experiments were performed using a NanoTemper Monolith Instrument (NT.115), similarly to Frangois-Moutal, L.; et al., ACS Chem. Biol. 2019, 14, 2006-2013.
(In general: Microscale thermophoresis detects binding through changes in fluorescence in a small temperature gradient.)

The target in assay [2] is T3, TDP-431-260 binding to its canonical RNA sequence (UG6) (Homo sapiens, UniProt Q13148).
T3 construct: TDP-431-260-His (0.75 nM) and a single concentration of biotinylated-UG6 RNA (0.6 nM); made in house
T3 sequence (Q13148 1-260 limits assumed): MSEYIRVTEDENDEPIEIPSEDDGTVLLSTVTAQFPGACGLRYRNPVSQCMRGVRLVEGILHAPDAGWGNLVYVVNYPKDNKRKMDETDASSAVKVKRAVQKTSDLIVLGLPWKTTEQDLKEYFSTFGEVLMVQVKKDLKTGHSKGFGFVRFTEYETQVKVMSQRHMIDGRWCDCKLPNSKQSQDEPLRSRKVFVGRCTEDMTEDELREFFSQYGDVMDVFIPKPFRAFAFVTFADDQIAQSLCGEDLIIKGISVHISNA
Briefly: Amplified luminescent proximity homogeneous alpha assay (ALPHA), RNA/TDP-43 disruption. Conditions: TDP-431-260-His 0.75 nM, biotinylated-UG6 RNA 0.6 nM; read-out: IC50 of disruption of TDP-431-260 / UG6 RNA interaction. On the procedure: FIG. 5. RNA/TDP-43 disruption by nTRD22. A concentration-dependent curve was obtained for nTRD22's disruption of nucleic acid-TDP-431-260 interaction at a single RNA concentration (0.6 nM). Data is represented as mean±SEM (n=3).
To define which residues in the RRM domains were affected, the chemical-shift perturbations (CSP) induced by nTRD22 were mapped onto the known structure of TDP-43102-269 (PDB: 4bs2^15) using a color gradient (FIG. 4F,G). […] More precisely, L106/1107 and G148/V150 are part of RNP-2 and RNP-1 of RRM1 respectively, while C196 is part of RNP-2 in RRM2^16. Moreover, C173 is also shown to be affected in presence of RNA^15. […] It should be noted that in repeated experiments, different residues are shifted and although one representative spectrum is shown here (FIG. 4), the average shift from three experiments are also reported (FIG. 10). […] To test this, an amplified luminescent proximity homogeneous (alpha) assay recently developed for another compound targeting TDP-43^17 was used. TDP-431-260 binding to its canonical RNA sequence (UG6) was measured with ranging concentrations of compound and nTRD22 was able to inhibit 50% of the interaction with an IC50 of ˜100 μM (FIG. 5).
Amplified luminescent proximity homogeneous alpha assay (ALPHA). […]

A further assay deals with EGFP. The experiment in a line: EGFP control-transfected rodent primary cortical neurons, fluorescence. The format is cell-based, rat. The settings on record: 5 to 100 μM. On the procedure:
(§4) FIG. 6. nTRD22 effect on primary cortical neurons. Confocal images of rodent primary cortical neurons with transfected TDP43-EGFP with A. DMSO, or B. […] nTRD22. Quantitation of GFP signal in TDP-43-EGFP (C) or EGFP (D) transfected primary neurons treated with increasing concentration of nTRD22 or DMSO. Data is presented as mean±SEM (n≥183 neurons from 8 technical and 3 biological replicates). Statistical difference was assessed by a Kruskal-Wallis test (*** p<0.001; **p=0.01).
(§5) To test this, TDP-43 fused to enhanced green fluorescent protein (TDP43-EGFP) was expressed in rodent primary cortical neurons, applied nTRD22 at concentrations ranging from 5 to 100 μM, and imaged GFP positive cells by automated fluorescence microscopy^1819. […] No changes in the fluorescence of control cells transfected with EGFP was observed (FIG. 6D).
(§6) Cell culture and transfection. […]
(§7) Fluorescence microscopy. […]
(§8) Image analysis. Custom ImageJ/Fiji macros and Python scripts (described in PMC6050042) were used to identify neurons and draw regions of interest (ROIs) based upon size, morphology, and fluorescence intensity. Additional scripts were used to identify and draw regions of interest (ROIs) surrounding each cell, and measure fluorescence intensity within individual ROIs. […]

The target in assay [3] is T2, TDP-431-260. The experiment in a line: STD-NMR screening of compound binding to TDP-43 1-260. Conditions: 500 μM compound, 5 μM protein. On the procedure: as §1, §2, §3
The test system of assay [4] is Drosophila overexpressing TDP-43. The experiment in a line: Climbing (negative geotaxis) assay in Drosophila model of ALS overexpressing TDP-43. The format is in vivo. Conditions: fly food supplemented with 50 μM.
The target in the next assay is T4, TDP43-EGFP (Homo sapiens, UniProt Q13148).
T4 construct: expressed in transfected cells; host or cells: primary cortical neurons from embryonic day 20-21 Long Evans rat pups
T4 sequence (Q13148 whole entry): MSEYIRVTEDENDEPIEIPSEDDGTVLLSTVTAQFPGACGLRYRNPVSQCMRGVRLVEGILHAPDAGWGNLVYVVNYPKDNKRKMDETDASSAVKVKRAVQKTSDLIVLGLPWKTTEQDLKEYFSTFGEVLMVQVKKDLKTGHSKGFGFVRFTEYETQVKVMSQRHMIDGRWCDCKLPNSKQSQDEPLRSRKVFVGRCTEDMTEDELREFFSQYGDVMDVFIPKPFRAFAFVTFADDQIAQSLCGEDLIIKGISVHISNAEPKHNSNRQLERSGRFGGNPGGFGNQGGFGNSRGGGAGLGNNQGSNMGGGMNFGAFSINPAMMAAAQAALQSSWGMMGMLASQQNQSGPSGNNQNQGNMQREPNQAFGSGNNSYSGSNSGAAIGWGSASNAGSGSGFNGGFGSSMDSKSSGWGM
Briefly: TDP43-EGFP in rodent primary cortical neurons, automated fluorescence microscopy. Conditions: 5 to 100 μM. Type of assay: cell-based, rat. On the procedure: as §4, §5, §6, §7, §8

The target in assay [5] is T5, TDP-43102-269 (RRM region) (Homo sapiens, UniProt Q13148).
T5 construct: made in house
T5 sequence (Q13148 102-269 limits assumed): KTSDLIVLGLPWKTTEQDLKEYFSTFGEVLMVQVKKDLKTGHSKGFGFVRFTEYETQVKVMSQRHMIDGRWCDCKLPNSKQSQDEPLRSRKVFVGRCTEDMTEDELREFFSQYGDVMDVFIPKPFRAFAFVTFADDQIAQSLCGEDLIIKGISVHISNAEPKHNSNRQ
Briefly: 2D 15N-HSQC NMR of TDP43 102-269 (RRM region) with compound. The format is binding. The settings on record: 4:1 molar ratio. On the procedure: (§9) To further characterize where nTRD22 binds on TDP-43, perturbations were measured using a 2D ^15N-HSQC NMR with increasing concentrations of nTRD22, up to a 8:1 molar ratio of nTRD22:TDP-431-260 (FIG. 4). […] To determine if these shifts were due to direct binding of nTRD22 to TDP-43102-269 (RRM region), a 2D ^15HSQC-NMR on TDP43102-269 with nTRD22 at a 4:1 molar ratio was collected (FIG. 4D, E).
(§10) Heteronuclear Single Quantum Correlation-NMR (HSQC-NMR). NMR spectra were acquired in 40 mM HEPES pH 6.5, 500 mM NaCl, 4 mM DTT with 10% D20 at 100 μM protein concentrations using 5 mm Shigemi NMR tubes. NMR data were collected at 298 K on a Bruker Avance NEO 600 MHz and 800 MHz spectrometers with TCI-H&F/C/N probe. NMR processing and analysis was done using NMRpipe, NMRDraw and NMRFAM-Sparky. Transverse relaxation optimized spectroscopy (TROSY) was used for all HSQC experiments.

The target in assay [6] is T2, TDP-431-260. The experiment in a line: 2D 15N-HSQC NMR of TDP-43 1-260 with compound. The format is binding. On the procedure:
2D ^15N-HSQC NMR spectrum of each positive hit was tested to further define the binding sites of the small molecule interactions with TDP-43 (FIG. 9). Using TDP-431-260, small molecules were added at a 4:1 molar ratio.
as §9, §10

“Also recorded” adds a separate entry of the source.

T2 sequence (Q13148 1-260 limits assumed): as the sequence (Q13148 1-260 limits assumed) above
T1 sequence (Q13148 102-269): as the sequence (Q13148 102-269 limits assumed) above

`O=C(NCCN1CCCC(O)C1)c1cc(COc2cccc(C(F)(F)F)c2)on1` (stereo not drawn) [nTRD22, N-(2-(3-hydroxypiperidin-1-yl)ethyl)-5-((3-(trifluoromethyl)phenoxy)methyl)isoxazole-3-carboxamide]: the “STD-NMR binding to TDP43102-269 (lacking NTD)” value at TDP43102-269 was “did not”. Moreover, the Kd at TDP-431-260 [1] is 145 ± 3 µM. Moreover, the IC50 in [2] was around 100 µM. Besides, the “fluorescence of control cells transfected with EGFP” value with EGFP is reported as “No changes”. Moreover, at TDP-431-260 [3], the “STD-NMR binding to TDP-431-260” value is “positive hits”. The “climbing / motor performance in young (5-6 dpe) and aged (19-20 dpe) flies” value in assay [4] (versus DMSO 0.05%) is reported as “rescue effect was increased in aged flies; also recorded: increased motor performance”. Also, the “climbing / motor performance versus DMSO treated or naive flies” value in [4] (n=60) is reported as “significantly able to rescue climbing defects; also recorded: increased motor performance”. Also, at TDP43-EGFP, the “TDP43-EGFP steady state levels (GFP signal)” value was “dose-dependent reduction” and the “intranuclear TDP43-EGFP droplet-like structures” value is “formation of intranuclear TDP43-EGFP droplet-like structures”. For the same compound, the “2D 15N-HSQC chemical shifts on TDP43102-269” value in assay [5] is on record as “No shifts were observed”. For the same compound, the “2D 15N-HSQC: aggregation / chemical shift perturbations” value at TDP-431-260 [6] (compound:protein 4:1 molar ratio, 100 μM protein) is “no protein aggregation with visible chemical shift perturbations”. Also, the “2D 15N-HSQC chemical shifts on titration” value on TDP-431-260 [6] (increasing concentrations up to 8:1 molar ratio nTRD22:TDP-431-260) is listed as “the majority of them occurring in the RRM region of the protein”.
